Publication PMC8156053, “Synthesis, Characterization, and In Vitro Insulin-Mimetic Activity Evaluation of Valine Schiff Base Coordination Compounds of Oxidovanadium(V)” (Biomedicines, 2021)
Where “and” joins values, the source holds several entries; their conditions need not be identical. Equal entries are not always repeated.

Experiments:
[1] = Solution stability over time in PBS by UV-Vis spectrophotometry; assay type: physicochemical; details: for decrease in the intensity of λmax: 2 × 10^−4 M in PBS pH 7.4, 37 °C; for stability in PBS: physiological pH (7.4), 37 °C
Protocol: Electronic absorption spectra for the 2 × 10^−4 M solution of the four oxidovanadium(V) complexes in PBS at pH 7.4 were recorded outright on the prepared solutions (designated as T 0 h in the histograms), after the preparation at 1 h (T 1 h), 3 h (T 3 h), 6 h (T 6 h), 9 h (T 9 h), and 24 h (T 24 h), respectively. The prepared solutions were incubated at 37 °C, and the readings were performed over the entire 500 ÷ 230 nm range using a microplate reader spectrophotometer TECAN Infinite M200Pro and a 96-well UV micro test plate. The data were expressed as the average ± SD of three independent measurements.

[2] = biological target: T1, bovine serum albumin (BSA) (Bos taurus, UniProt P02769); assay: Fluorescence quenching of serum albumin (Stern–Volmer); assay type: binding; details: for Stern–Volmer constant KSV: BSA 2 × 10^−6 M, PBS pH 7.4, emission 347 nm; for decrease of BSA fluorescence intensity: highest tested concentration (2.5 × 10^−5 M), 2 × 10^−6 M BSA, PBS pH 7.4, vs free BSA and BSA with DMSO; for collision quenching constant Kq (Kq = Ksv/τ0): τ0 = 10^−8 s
T1 construct: α-Amylase from porcine pancreas, bovine serum albumin (BSA); purchased SIGMA-Aldrich (Merck KGaA, Darmstadt, Germany)
T1 sequence (P02769 25-607): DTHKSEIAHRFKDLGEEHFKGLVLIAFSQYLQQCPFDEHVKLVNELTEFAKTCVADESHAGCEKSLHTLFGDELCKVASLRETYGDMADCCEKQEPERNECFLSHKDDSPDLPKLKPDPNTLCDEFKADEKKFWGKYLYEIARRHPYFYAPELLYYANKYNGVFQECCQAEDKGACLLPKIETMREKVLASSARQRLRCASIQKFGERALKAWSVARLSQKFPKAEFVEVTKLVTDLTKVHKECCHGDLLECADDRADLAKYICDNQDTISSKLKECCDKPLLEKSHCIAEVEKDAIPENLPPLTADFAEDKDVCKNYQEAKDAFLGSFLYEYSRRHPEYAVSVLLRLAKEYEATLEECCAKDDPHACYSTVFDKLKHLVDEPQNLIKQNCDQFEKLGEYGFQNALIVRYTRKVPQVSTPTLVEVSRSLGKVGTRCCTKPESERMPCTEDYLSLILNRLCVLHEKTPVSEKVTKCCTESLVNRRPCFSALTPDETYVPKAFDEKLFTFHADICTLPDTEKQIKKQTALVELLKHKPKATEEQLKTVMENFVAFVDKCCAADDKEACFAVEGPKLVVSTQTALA
Protocol: The capacity of the oxidovanadium(V) compounds to bind to bovine serum albumin (BSA) was monitored by fluorescence quenching assay. A solution of 2 × 10^−6 M BSA in PBS, pH 7.4, was incubated for 2 h at 37 b0C with each vanadium-based compound or V^IVOSO4•3H2O at increasing molar concentrations (1 × 10^−6 ÷ 2.5 × 10^−5 M) or with 0.025% DMSO (negative control). The samples were excited at 295 nm and the emission spectra of all BSA solutions were recorded in the 300 ÷ 450 nm range using a JASCO FP-750 spectrofluorometer. The final spectrum was the average of three recordings measured at a scanning speed of 250 nm/minute, with an excitation and emission bandwidth of 5 nm. […] In addition, by applying the Stern–Volmer equation [23], the mechanism by which the complexes bind to BSA was investigated as it is described in the Supplementary material.
The Stern–Volmer e quation
The Stern–Vol mer equation [1] is:
I0/I= 1+ Kqτ0[Q] = 1 + Ksv[Q], where: I0 = the fluor escence intensities of fr ee BS A solution at 347 nm, I = the fluorescence intensities of BS A solution at 347 nm in the presence of vanadium […]
[Q] = the concentration of vanadium co mplexes, τ0 = the fluorescence l ifetime of the biopolymer (10-8 s), Kq = the coll isi on quenching constant;
Ksv = the Stern-Volmer constant.
Stern–Vol mer plots of the B SA fluorescence quenching in t he prese nce of each compou nd are represented in Fig. S4, together with the ir linear best fit in which y = I0/I, x = [Q], a = slope of the li ne, […]
The fluorescence intensitie s are the average of three recordings measured at a scanning speed of 250 nm/min, with an excitation and emissio n bandwidth of 5 nm.

[3] = biological target: T2, α-Amylase from porcine pancreas (Sus scrofa, UniProt P00690); assay: Inhibition of the α-amylase activity (DNS/starch); assay type: biochemical; details: 1.8 × 10^−2 and 2.0 × 10^−2 M, compared to DMSO
T2 construct: α-Amylase from porcine pancreas, bovine serum albumin (BSA); purchased SIGMA-Aldrich (Merck KGaA, Darmstadt, Germany); host or cells: porcine pancreas
T2 sequence (P00690 16-511): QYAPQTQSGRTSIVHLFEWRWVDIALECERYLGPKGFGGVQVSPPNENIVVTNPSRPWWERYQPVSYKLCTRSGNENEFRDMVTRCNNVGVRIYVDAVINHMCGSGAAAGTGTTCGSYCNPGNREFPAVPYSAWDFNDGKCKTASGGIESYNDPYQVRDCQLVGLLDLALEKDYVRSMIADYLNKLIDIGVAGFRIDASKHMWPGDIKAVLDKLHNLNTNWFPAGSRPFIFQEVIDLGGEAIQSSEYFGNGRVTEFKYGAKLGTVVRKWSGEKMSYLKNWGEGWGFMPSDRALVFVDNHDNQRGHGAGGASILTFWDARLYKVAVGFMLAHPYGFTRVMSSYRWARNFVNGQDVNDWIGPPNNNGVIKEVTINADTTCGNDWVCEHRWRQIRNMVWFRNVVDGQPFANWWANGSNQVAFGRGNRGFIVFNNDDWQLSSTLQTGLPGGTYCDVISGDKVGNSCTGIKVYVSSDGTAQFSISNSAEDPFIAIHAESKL
Protocol: The capacity of the obtained complexes to inhibit pancreatic α-amylase activity in vitro was analyzed using a slightly modified procedure of the one described by Apostolidis and Lee. Thus, 100 µL solution of complexes (1.8 ÷ 2.5 × 10^−2 M), 2.5 × 10^−2 M V^IVOSO4•3H2O, 2.5 × 10^−2 M acarbose (positive control) and 12.5% DMSO (negative control) in reaction buffer (2 × 10^−2 M sodium phosphate, pH 6.9 with 6 × 10^−3 M sodium chloride) were pre-exposed to 100 µL of 20 units/mL α-amylase in reaction buffer for 10 min at room temperature. Then, 100 µL of 1% starch solution in reaction buffer were added and the samples were incubated at room temperature for 10 min. The reaction was stopped with 200 µL of 3, 5-dinitrosalicylic acid (DNS). The samples were heated at 90 ÷ 95 °C for 10 min and then left to cool down at room temperature. The reaction mixture was further diluted with 4 mL of distilled water. As a control for the inhibitory effect of acarbose, a sample containing starch and enzyme was used. The yellow/orange color intensity was measured using the microplate reader TECAN Infinite M200Pro at 540 nm. The experiment was performed in triplicate. The blank (sample without starch and enzyme) absorbance was subtracted from the absorbance of all samples and the activity of α-amylase was expressed as % of DMSO (negative control).

insulin receptor (INS R) = assay: Quantification of phosphorylated insulin receptor by immunoblotting in HepG2 cells; assay type: cell-based, human; details: 10^−7 M insulin
Protocol: To investigate the effect of oxidovanadium(V) complexes on insulin receptor (INS R) phosphorylation, HepG2 cells (1.0 × 10^5 cells/mL) were treated with 2.5 × 10^−5 M oxidovanadium(V) compounds, V^IVOSO4•3H2O, and 10^−7 M insulin (positive control) for 3 and 24 h, respectively. As negative controls, cells exposed to free-complete medium (negative control for treatment with V^IVOSO4•3H2O and insulin) and cells exposed to 0.0125% DMSO (negative control for treatment with complexes) were used.
After cell lysis, 50 µg of total protein was denatured by adding 1/5th volume of Laemmli’s buffer 6× (15% SDS, 0.01% bromophenol blue, 74% glycerol, 7.5 × 10^−2 M Tris, pH 6.8, 1/8th volume of 2-mercaptoethanol) followed by heating at 95 °C for 5 min. […]
The separated proteins were transferred (using a Trans-Blot Semi-Dry transfer cell, Bio-Rad) to a nitrocellulose membrane (0.45 µm, Bio-Rad), blocked with 1% BSA for 1 hour, and incubated overnight with the primary antibody: Mouse anti-insulin receptor-β chain (INS R-β) (1:500, Santa Cruz Biotechnology cat. No. sc-57342), rabbit anti-phosphorylated INS R-Y1162/3 (pINS R, 1:400, R&D Systems, Minneapolis, MN, USA cat. No. AF2507) and mouse anti-β-actin (1/2000, Bio-Rad cat. no. MCA5775GA). […] The data were expressed as the mean ± SD of two individual experiments performed in duplicate.

HepG2 cells = assay: Cytotoxicity, XTT cell viability assay; assay type: cell-based, human; details: 24 h
Protocol: HepG2 cell line was purchased from American Type Culture Collection. The cells were grown in Dulbecco’s Modified Eagle’s Medium (DMEM) with 4.5‰ glucose, supplemented with 10% (v/v) fetal bovine serum, 100 units/mL penicillin, and 100 µg/mL streptomycin (complete medium). HepG2 cells were maintained at 37 °C in a 5% carbon dioxide incubator and were periodically sub-cultivated.
To determine the cytotoxic concentration of the synthesized oxidovanadium(V) complexes and V^IVOSO4•3H2O, HepG2 cells were incubated with increasing molar concentrations (1 × 10^−5 ÷ 3 × 10^−4 M) of compounds.
HepG2 cells (1.5 × 10^4 cells/mL) were seeded in complete medium on a 96-well cell culture plate and were incubated at 37 b0C, as previously described. […] Control cells were represented by cells exposed to free-complete medium and medium supplemented with 0.15% DMSO. The cytotoxicity of tested compounds on the HepG2 cell line was assessed by the 2, 3-bis-(2-methoxy-4-nitro-5-sulfophenyl)-2H-tetrazolium-5-carboxanilide) (XTT) cell viability assay. The method is based on the reduction of XTT, in the presence of phenazine methosulfate, to a water-soluble orange formazan derivative. The absorbance of the sample, due to the intensity of the orange color, which is proportional to the number of viable cells, was recorded at 450 nm using the Tecan Infinite M200Pro spectrophotometer.

[4] = ratio of BSA quenching constants

| Molecule | decrease in the intensity of λmax ([1]; 1 h vs T 0 h) | decrease in the intensity of λmax ([1]; 3 h vs T 0 h) | decrease in the intensity of λmax ([1]; 6 h vs T 0 h) | decrease in the intensity of λmax ([1]; 9 h vs T 0 h) | decrease in the intensity of λmax ([1]; 24 h vs T 0 h) | stability in PBS [1] | Stern–Volmer constant KSV [2] | decrease of BSA fluorescence intensity [2] | Kq(2a)/Kq(1a) [2, 4] | Kq(2a)/Kq(2b) [2, 4] | collision quenching constant Kq (Kq = Ksv/τ0) [2] | increase of α-amylase enzyme activity [3] | Kq(2b)/Kq(1b) [2, 4] | inhibitory effect on α-amylase activity [3] | Kq(1a)/Kq(1b) [2, 4] | increase of INS R phosphorylation (insulin receptor (INS R); 3 h, HepG2, compared to cells exposed to free-complete medium) | INS R phosphorylation (insulin receptor (INS R); 24 h, HepG2, compared to control cells) | reduction of HepG2 viability (HepG2 cells; 1 × 10^−5 M, compared to DMSO treated cells) | reduction of HepG2 viability (HepG2 cells; highest concentration (3 × 10^−4 M), compared to control cells) |
| --- | --- | --- | --- | --- | --- | --- | --- | --- | --- | --- | --- | --- | --- | --- | --- | --- | --- | --- | --- |
| CO.CO.COc1cccc2c1[O][V](=[O])([O][V]1(=[O])[O]C(=O)[C@@H](C(C)C)N=Cc3cccc(OC)c3[O]1)[O]C(=O)[C@@H](C(C)C)N=C2 (stereo partly shown) [2a, [{V^VO(R-vanval)(CH3OH)}2(μ2-O)]] | less than 10% | less than 20% | ~20% | ~30% | ~30% | stable in PBS at physiological pH and temperature for up to three hours | 171800 M⁻¹ | ~80% | 2 and 2.12 | 0.69 | 1.718e+13 M⁻¹ s⁻¹ | 35% |  |  |  |  |  |  |  |
| CO.CO.COc1cccc(C=N[C@H](C(=O)[O-])C(C)C)c1[O-].COc1cccc(C=N[C@H](C(=O)[O-])C(C)C)c1[O-].[O]=[V+2][O][V+2]=[O] [2b, [{V^VO(S-vanval)(CH3OH)}2(μ2-O)]] | less than 10% | less than 20% | ~20% | ~30% | ~30% | stable in PBS at physiological pH and temperature for up to three hours | 248900 M⁻¹ | ~80% |  |  | 2.489e+13 M⁻¹ s⁻¹ | 35% | 4 and 4.14 |  |  |  |  |  |  |
| CC(C)[C@H](N=Cc1ccccc1[O-])C(=O)[O-].CC(C)[C@H](N=Cc1ccccc1[O-])C(=O)[O-].O.[O]=[V+2][O][V+2]=[O] [1b, [{V^VO(S-salval)(H2O)}(μ2-O){V^VO(S-salval)}]] | about 10% | about 25% | about 40% | about 50% | about 70% | stable in PBS at physiological pH and temperature for up to three hours | 60100 M⁻¹ | about 60% |  |  | 6.01e+12 M⁻¹ s⁻¹ |  |  | more than 18% |  |  |  |  |  |
| CC(C)[C@H]1N=Cc2ccccc2[O][V](=[O])([O][V]2(=[O])[O]C(=O)[C@@H](C(C)C)N=Cc3ccccc3[O]2)[O]C1=O.O (stereo partly shown) [1a, [{V^VO(R-salval)(H2O)}(μ2-O){V^VO(R-salval)}]] | about 10% | about 25% | about 40% | about 50% | about 70% | stable in PBS at physiological pH and temperature for up to three hours | 80700 M⁻¹ | about 60% |  |  | 8.07e+12 M⁻¹ s⁻¹ |  |  | more than 18% | 1.34 |  |  |  |  |
| insulin: human recombinant insulin, positive control for INS R phosphorylation |  |  |  |  |  |  |  |  |  |  |  |  |  |  |  | about 80% | reduced and insignificant |  |  |
| N.N.[Cl][Pt][Cl] [cisplatin] |  |  |  |  |  |  |  |  |  |  |  |  |  |  |  |  |  | 44% |  |
| O.O.O.O=S(=O)([O-])[O-].[O]=[V+2] [V^IVOSO4•3H2O, reference compound] |  |  |  |  |  |  |  | does not reduce the fluorescence intensity of BSA |  |  |  |  |  |  |  |  |  |  | 34% |
